Test results from patent US20220332876A1, “HYDROPHILIC-HYDROPHOBIC COPOLYMER CARRYING SHORT CHAIN FATTY ACID ESTER” (UNIVERSITY OF TSUKUBA, priority 2019, published 2022).

Tests used:
[1] = mouse, in vivo
Procedure: (§1) Seven 7 to 8-week-old C57BL/6J mice (male) per group were obtained from Charles River Japan, Inc (Yokohama). These mice were bred while being freely fed with a standard solid feed at controlled temperature (23±1° C.) and humidity (50±5%) in a controlled temperature (23±1° C.) and humidity (50±5%) under non-pathogenic conditions in 12 hours dark/light cycles. The mice were randomly divided into the following administration groups of GP1 to GP6, and allowed to freely drink each sample described until Day 36. One day later, a glucose resistance test was performed. In the test, the body weight and sample consumption for each mouse were monitored every day. The sample was then replaced with drinking water until the end of the test (Day 40).
These organs were stored in a 10% neutral buffer for further histological analysis. The Student's t-test is the same as described above.
(§2) The organs of the mice taken out after dissection were fixed by immediately putting them in a 10% neutral formalin solution and immersing them therein for 1 day. Thereafter, the solution was replaced with a 70% ethanol solution for paraffin embedding. All the organs after the paraffin embedding were processed into tissue sections with a thickness of 5 μm, which were hematoxylin/eosin (HE) stained by a routine method. The tissue sections were dehydrated with high-concentration alcohol and washed with xylene, followed by microscope examination (biorevo, BZ-9000, Keyence). A villus length was measured by ImageJ software (NIH). […] The t-test is the same as described above.

[2] = Antidiabetic test (glucose resistance test, pancreatic histology); type: in vivo, C57BL/6J mice; conditions: for size of the islets of Langerhans: H & E stained pancreatic tissue; for glucose concentration in glucose resistance test: glucose 2 g/kg orally, [glucose]60 min−[glucose]0 min, compared with the diabetic model mice
Procedure: as §1
(2) The glucose resistance test was performed to evaluate the therapeutic effects of short chain fatty acids in controlling the metabolism of the administered glucose. Sixteen (16) hours after overnight constraint, glucose (2 g/kg) was orally administered to the mice. One hour before and after the glucose administration, 10 μL of blood was collected from the tail vein, and mixed with heparin-containing (50 units/mL) saline in a volume (v:v) ratio of 1:1. A glucose concentration in the diluted blood was measured by FUJI DRY-CHEM 7000V (FUJIFILM Corporation). A final blood glucose concentration was calculated by the following equation:
Final glucose concentration (mg/mL)=[glucose]60 min−[glucose]0 min
as §2, with “In accordance with a routine method, all” for “All”, “alcohol,” for “alcohol and”, “then fixed, and subjected to” for “followed by”, “region of the islets of Langerhans” for “villus length”, “determined” for “measured”, “(NIH). The results are illustrated in FIG. 30.” for “(NIH).”

melanoma B16F10 cells = test: Effect 2 as radiation enhancer (melanoma xenograft model); type: in vivo, C57BL/6J mice; conditions: for tumor weight / tumor size at the end of the test: Day 6 after irradiation
Procedure: (§3) Five or seven 5 to 7-week-old C57BL/6J mice per group obtained similarly as in the above test were bred under similar conditions. 0.076×10^6 melanoma B16F10 cells per 100 μL (serum free DMEM) were injected subcutaneously into the outer side of the right thigh of each of the mice (Day 9 before irradiation). When the cancer volume reached from 350 to 560 mm^3, the mice were randomly divided into the following administration groups. The irradiation conditions were set to 10 Gy, 150 kV, 20 mA, Al+Cu (0.5 mm+0.1 mm) filtration, and 330 mm intervals.
The cancer volume was calculated in the same manner as described above.
GP4: Butyric acid (i.p.; 250 mg/kg) (6 hours before irradiation)+IR group (n=7)
GP5: Butyric acid (i.p.; 500 mg/kg) (24 hours before irradiation)+IR group (n=7)
GP6: BNP (i.p.: 500 mg/kg) (6 hours before irradiation)+IR group (n=7)
GP7: BNP (i.p.: 500 mg/kg) (12 hours before irradiation)+IR group (n=7)
(1) The data on cancer proliferation profiles by 5 Gy irradiation after butyric acid and NP administration in a melanoma xenograft model is illustrated in FIG. 33.
(2) The data on the cancer weight at the end of the test (Day 6 after irradiation) is illustrated in FIG. 32 as mean±SEM values (n=from 2 to 7). The t-test is the same as in Test 8 (5).

[3] = Body weight in radiation enhancer Test Example 10; type: in vivo, C57BL/6J mice
Procedure: as §3, with “When the cancer volume reached from 350 to 560 mm^3, the mice were randomly divided into the following administration groups.” left out
(3) The data on body weight changes in the mice as mean SD values (n=7) are illustrated in FIG. 35. The t-test is the same as described above.

[4] = Pharmacokinetic study (2): phenylbutyric acid monomer in plasma and liver by LC/MS; type: in vivo, ICR mice; conditions: 200 mg/kg (1.22 mmol-4PBA/kg); blood and liver
Procedure: Forty-five (45) 7-week-old ICR mice (male) were randomly divided into the following three groups. Doses for the administration groups 2GP and 3GP were determined so that the amount of phenylbutyric acid contained therein reached 200 mg/kg (1.22 mmol-4PBA/kg). After each sample is administered nearly simultaneously to all the mice, 1 mL of blood is taken by cardiac puncture, according to each endpoint (7 endpoints of 30 min, 1 h, 2 h, 4 h, 12 h, 16 h, 24 h), to separate plasma. The target organ, liver, was also taken out from each of the mice, and content of the phenyl butyric acid monomer was quantified by high performance liquid chromatography/mass spectrometry (LC/MS). The measurement results are illustrated in FIG. 43. In these figures, PBA was totally metabolized within 4 hours, whereas 4-Ph-BNP persistently released the phenylbutyric acid monomer in the blood and in the liver, and the release was not terminated even after 24 hours.
1GP: Saline (control, 3 mice) 2GP: 4-Phenylbutyric acid (7 endpoints (30 min, 1 h, 2 h, 4 h, 12 h, 16 h, and 24 h)×3 mice) 3GP: Ph-BNP (7 endpoints (30 min, 1 h, 2 h, 4 h, 12 h, 16 h, and 24 h)×3 mice)

Compound	villus length in the duodenum, jejunum, ileum, and large intestine [1]	size of the islets of Langerhans [2]	glucose concentration in glucose resistance test [2]	tumor proliferation suppressive effect (order of groups) (melanoma B16F10 cells; i.p. 6 hours before 5 Gy irradiation)	tumor weight / tumor size at the end of the test (melanoma B16F10 cells; i.p. 6 hours before irradiation)	tumor proliferation suppressive effect (order of groups) (melanoma B16F10 cells; i.p. 24 hours before 5 Gy irradiation)	tumor weight / tumor size at the end of the test (melanoma B16F10 cells; i.p. 24 hours before irradiation)	body weight change / toxicity ([3]; i.p. before irradiation)	body weight change / toxicity ([3]; mouse, in vivo, ip)	time until totally metabolized [4] [h]
CCC(=O)O [propionic acid]	same trend	reduced	no significant differences							
CCCC(=O)O [butyric acid]	same trend	reduced	no significant differences	irradiation group <butyric acid (6 hours before) administration group	significantly reduced	BNP (6 hours before) administration group=butyric acid (24 hours before) administration group	significantly reduced	body weight decrease is found		
CH3O—(CH2CH2O)m—CH2PhCH2[CH2CH(OC(═O)CH2CH2CH3)]nS(═S)OCH2CH3 [N721]	did not have a shortened villus length or damage to the digestive tract								does not have a body weight decrease	
O=C(O)CCCc1ccccc1 [4-phenylbutyric acid]										≤ 4
